Measured values published in US4933356A, “Diflunisal potentiation of acetazolamide in the control of intraocular pressure” (Cornell Research Foundation, Inc., priority 1988, dated 1990).
Values joined by “and” are separate entries in the source; they are usually repeats but may differ in a detail not shown here. Identical values can stand only once. “Also recorded” adds a separate entry of the source. Like-named read-outs stand apart in the source and are kept apart here.

How the values were obtained:
[1] = In vitro plasma binding of acetazolamide with graded concentrations of diflunisal (dialysis); type: in vitro ADME; conditions: human, 90 μM acetazolamide
Experimental: An in vitro study was performed for the effect of graded doses of diflunisal on the plasma binding of acetazolamide. Both drugs were added to plasma of a single non-glaucomatous individual and duplicate dialyses were done.
(§1) Acetazolamide was analyzed by assay against carbonic anhydrase (Maren, T. H., J. Pharmacol. Exp. Therap.. 130:26 (1960)). Dialysis was carried out in a specially constructed cell consisting of two chambers of 1 ml capacity separated by Spectra/Por membrane, MW cutoff 6,000-8,000, Spectrum Med. Industries. One ml plasma, after analysis for total drug, was introduced to one compartment and 1 ml physiological saline to the other. The solutions were each mixed for 18 hours at 25* and then analyzed and calculated for free and total drug.
^a In Vitro plasma binding of 90 μM acetazolamide in a single
individual ([…]) following graded concentrations of diflunisal.

[2] = Plasma concentration of acetazolamide (total and free) in glaucoma patients, before/after diflunisal; type: in vivo, human; conditions: for concentration: 15 patients, read-out: total acetazolamide plasma level
Experimental: (§2) In 15 acetazolamide-treated patients 2-3 cc of venous blood was drawn before and again, at the same time of day, after one week on diflunisal for determination of total plasma concentration of acetazolamide. The blood sample underwent centrifugation at 5000 rpm for 5 minutes, and the plasma was separated and refrigerated until analysis. In addition, the plasma of seven of these 15 acetazolamide-treated patients was subjected to dialysis for determination of binding to albumin.
A blood sample was also taken from six acetazolamide-treated patients twice at a one week interval without diflunisal treatment.
as §1

[3] = Plasma unbound acetazolamide in patients by dialysis, before/after diflunisal; type: in vitro ADME; conditions: human, seven patients
Experimental: as §2, §1

glaucoma patients = experiment: Side effects in glaucoma patients after addition of diflunisal; conditions: acetazolamide plus diflunisal; severe nausea and extreme confusion
Experimental: (§3) All subjects taking part in this study participated voluntarily and an informed consent was obtained from each prior to their enrollment in the study. Forty-eight glaucoma patients (19 men and 29 women) on maximally tolerated antiglaucoma medications were assigned consecutively to the study. […] All eyes were treated with at least one preparation of topical antiglaucoma medications; pilocarpine (60 eyes), epinephrine or dipivefrin hydrochloride (27 eyes), timolol, levobunolol or betaxolol (80 eyes), and echothiophate iodide (17 eyes). Upon entering the study each patient received a full ophthalmologic examination which included a visual acuity determination, slitlamp examination, IOP measurement (baseline) with a Goldmann applanation tonometer, gonioscopy, and a dilated fundus examination. Patients were instructed to take oral diflunisal, 500 mg, twice daily for one week, while their regular antiglaucoma medications remained unchanged. A week later patients were examined again for visual acuity, slit lamp examination, IOP measurement and a history of side effects. Baseline and follow-up IOP was measured by the same investigator using the same tonometer at approximately the same time of day.

[4] = Plasma protein binding (background and discussion); type: in vitro ADME; conditions: read-out: plasma albumin binding of acetazolamide (converted)
[5] = tested on: glaucoma patients (intraocular pressure); experiment: Change in intraocular pressure (IOP) in glaucoma patients after one week of added diflunisal; type: in vivo, human; conditions: for Change in IOP following diflunisal treatment: Table I, mean ± SD; for effect of diflunisal on hypotensive action / IOP (in words): diflunisal added to stated drug
Experimental: as §3

[6] = tested on: prostaglandin synthesis (cyclooxygenase); conditions: at high doses; cited from earlier work
[7] = tested on: normal volunteers (intraocular pressure); experiment: Change in intraocular pressure in normal volunteers (control group) given diflunisal alone; type: in vivo, human; conditions: normal controls
Experimental: Eight normal volunteers (52.3±16.4 years) on no medications participated in this study as a control group to study the ocular hypotensive effect of diflunisal itself and were given oral diflunisal, 500 mg, twice daily for one week. The examinations before and after diflunisal were similarly taken as glaucoma patients described above.

human plasma protein = conditions: cited from earlier work
[8] = cited from earlier work
[9] = in vivo; cited from earlier work
[10] = tested on: plasma albumin / plasma protein; conditions: cited from earlier work
[11] = diflunisal 500 mg oral twice daily, one week, added to stated antiglaucoma medication

For `CC(=O)Nc1nnc(S(N)(=O)=O)s1` [Acetazolamide, 5-acetamido-1,3,4-thiadiazole-2-sulfonamide], the fraction unbound at 18 h, 90 µM ([1]; diflunisal 0 μm) was 0.07, the fraction unbound at 18 h, 90 µM ([1]; diflunisal 200 μm) was 0.14 and the fraction unbound at 18 h, 90 µM ([1]; diflunisal 400 μm) was 0.22. The fraction unbound at 18 h, 90 µM ([1]; diflunisal 600 μm) was 0.26, the concentration ([2]; after one week on diflunisal, P<0.015 vs baseline) was 31.8 ± 16.1 µM and the concentration ([2]; baseline before diflunisal) was 19.1 ± 9.1 µM. The “increase in free plasma levels of acetazolamide” value ([2]; addition of diflunisal) was 5.6 fold, the “increase in total plasma levels of acetazolamide” value ([2]; addition of diflunisal) was about 50% and the “free (unbound) acetazolamide plasma concentration” value ([2]; after diflunisal) was 5.6 ± 4.1 µM and 5.6 µM. The “free (unbound) acetazolamide plasma concentration” value ([2]; before diflunisal) was 1.0 ± 0.6 µM and 1.0 µM, the “change in total acetazolamide plasma level over one week” value ([2]; six patients without additional diflunisal, P≥0.05) was “no significant change” and the fraction unbound at 18 h ([3]; after diflunisal) was 0.162 ± 0.087. For the same compound, the fraction unbound at 18 h ([3]; before diflunisal) was 0.043 ± 0.027, the “patients dropped from study because of severe side effects” value (glaucoma patients) was “Two” and the fraction unbound ([4]; reduced by diflunisal) was about 0.2. The fraction unbound ([4]; without diflunisal) was 0.03 to 0.07, the “relationship between daily dosage of acetazolamide and IOP reduction” value ([5]; FIG. 1, after one week of diflunisal) was “no relationship between the daily dosage of acetazolamide and the IOP reduction” and the “Change in IOP following diflunisal treatment” value [5, 11] was -3.8 ± 3.1 mm Hg. For the same compound, the “effect of diflunisal on hypotensive action / IOP (in words)” value [5] was “significant decrease in IOP”.

In the case of `O=C(O)c1cc(-c2ccc(F)cc2F)ccc1O` [Diflunisal, 2-(hydroxy)-5-(2,4-difluorophenyl) benzoic acid], the “inhibition of prostaglandin synthesis” value [6] is listed as “inhibits prostaglandin synthesis”, the “Change in IOP following diflunisal treatment” value ([7]; Table I, diflunisal alone 500 mg twice daily, one week, n = 16 eyes, mean ± SD) is listed as 0.0 ± 1.0 mm Hg and the “change in IOP after diflunisal (in words)” value ([7]; diflunisal alone) is listed as “no significant change in IOP; also recorded: did not result in a significant reduction of IOP”. For the same compound, the “displacement of drugs from plasma protein” value (human plasma protein) was “can unbind partially bound compounds such as salicylic acid and phenprocoumin”, the “displacement of drugs from plasma protein” value (human plasma protein; listed as diflunisal) was “displace the following compounds from human plasma protein: salicylate and phenprocoumin” and the “Change in IOP following diflunisal treatment” value ([5]; diflunisal 500 mg twice daily, one week, topically treated only, n = 22 eyes) was -0.7 ± 2.1 mm Hg. For the same compound, the “change in IOP after diflunisal (in words)” value ([5]; patients on topical medications alone, plus diflunisal) was “no significant change in IOP; also recorded: did not result in a significant reduction of IOP”, the “time to steady state plasma levels” value ([8]; 500 mg twice daily) was 3 to 9 days and the “time to peak plasma levels” value ([8]; in vivo, po) was 2 to 3 h. For the same compound, the “absorption from the intestines” value ([8]; in vivo) was “well absorbed from the intestines”, the excretion ([8]; in vivo) was “excreted mostly in the urine as a glucuronide” and the “most frequent adverse reactions” value [9] was “nausea, gastrointestinal discomfort and diarrhea”. For the same compound, the tolerability versus aspirin [9] was “generally better tolerated than aspirin”.

For `CC(=O)/N=c1/sc(S(N)(=O)=O)nn1C` [Methazolamide], the plasma protein binding [10] is listed as 55%, the “Change in IOP following diflunisal treatment” value [5, 11] is listed as -1.6 ± 1.5 mm Hg and the “mean reduction of IOP” value ([5]; added diflunisal 500 mg twice daily, one week, vs baseline) is listed as 1.6±1.5 mm Hg. The “effect of diflunisal on hypotensive action / IOP (in words)” value [5] was “did not result in a significant reduction of IOP; also recorded: did not affect the hypotensive action”.

For `O=C(O)c1ccccc1O` [Salicylate, salicylic acid], the “unbinding of acetazolamide from plasma proteins” value (human plasma protein) is given as “unbind acetazolamide from plasma proteins”.
